Assay results published in the supplement of paper PMC10307832.

Key:
Assay in all cases: relative viability (nuclei count vs DMSO), 5 days (fraction); higher = more cells survive
[1] = compound: CC1(C)CCC(CN2CCN(c3ccc(C(=O)NS(=O)(=O)c4ccc(NCC5CCOCC5)c([N+](=O)[O-])c4)c(Oc4cnc5[nH]ccc5c4)c3)CC2)=C(c2ccc(Cl)cc2)C1 [Venetoclax] + Cc1nc(Nc2ncc(C(=O)Nc3c(C)cccc3Cl)s2)cc(N2CCN(CCO)CC2)n1 [Dasatinib] (partner 0.075 µM)
Method in brief: (§1)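 Lung cancer cell lines in 1536-well plates got either a single drug or a fixed anchor-drug dose together with five library-drug doses (not always all listed) in √10 steps, by pin tool, on the day after seeding. Nuclei were counted after 5 days, and relative viability is the treated-to-vehicle ratio of nuclei counts. Values are medians of duplicate plates.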

[2] = compound: Cn1cnc2c(F)c(Nc3ccc(Br)cc3Cl)c(C(=O)NOCCO)cc21 [Selumetinib] + COc1cc2c(Oc3ccc(NC(=O)C4(C(=O)Nc5ccc(F)cc5)CC4)cc3F)ccnc2cc1OCCCN1CCOCC1 [Foretinib] (partner 0.25 µM)
Method in brief: as §1

[3] = compound: Cn1cnc2c(F)c(Nc3ccc(Br)cc3Cl)c(C(=O)NOCCO)cc21 [Selumetinib] + CS(=O)(=O)N1CCN(Cc2cc3nc(-c4cccc5[nH]ncc45)nc(N4CCOCC4)c3s2)CC1 [Pictilisib] (partner 1 µM)
Method in brief: as §1

[4] = compound: Cn1cnc2c(F)c(Nc3ccc(Br)cc3Cl)c(C(=O)NOCCO)cc21 [Selumetinib] + CC(=O)Nc1cccc(-n2c(=O)n(C3CC3)c(=O)c3c(Nc4ccc(I)cc4F)n(C)c(=O)c(C)c32)c1 [Trametinib] (partner 0.02 µM)
Method in brief: as §1

Row | Cell Line | relative viability ([1]; first compound 0.01 µM) | relative viability ([1]; first compound 0.03162 µM) | relative viability ([1]; first compound 0.1 µM) | relative viability ([1]; first compound 0.3162 µM) | relative viability ([1]; first compound 1 µM) | relative viability ([2]; first compound 0.02 µM) | relative viability ([2]; first compound 0.06325 µM) | relative viability ([2]; first compound 0.2 µM) | relative viability ([2]; first compound 0.6325 µM) | relative viability ([3]; first compound 0.02 µM) | relative viability ([3]; first compound 0.06325 µM) | relative viability ([3]; first compound 0.2 µM) | relative viability ([3]; first compound 0.6325 µM) | relative viability ([4]; first compound 0.02 µM) | relative viability ([4]; first compound 0.06325 µM) | relative viability ([4]; first compound 0.2 µM) | relative viability ([4]; first compound 0.6325 µM)
1 | ABC-1 | 0.665 | 0.655 | 0.445 | 0.658 | 0.604 | 0.906 | 0.882 | 0.951 | 0.767 | 0.64 | 0.605 | 0.393 | 0.607 | – | – | – | –
2 | SW 900 | 0.544 | 0.625 | 0.645 | 0.855 | 0.434 | 0.876 | 0.78 | 0.783 | 0.92 | – | – | – | – | 0.68 | 0.764 | 0.875 | 0.675
3 | PC-3 [JPC-3] | 0.863 | 0.991 | 0.995 | 1.01 | 0.942 | 0.944 | 0.92 | 0.922 | 0.713 | 0.711 | 0.718 | 0.456 | 0.503 | 0.65 | 0.641 | 0.685 | 0.656
4 | NCI-H1648 | – | – | – | – | – | – | – | – | – | – | – | – | – | – | 0.503 | 0.443 | 0.499
5 | A549 | – | – | – | – | – | 0.779 | 0.581 | 0.546 | 0.32 | 0.441 | 0.377 | 0.256 | 0.238 | – | – | – | –
6 | A-427 | 0.667 | 0.726 | 0.667 | 0.687 | 0.639 | 1.17 | 1.11 | 0.954 | 0.756 | 0.752 | 0.583 | 0.493 | 0.421 | 0.731 | 0.781 | 0.812 | 0.794
7 | NCI-H1975 | 0.355 | 0.4 | 0.372 | 0.318 | 0.322 | 0.992 | 1.09 | 1.03 | 0.724 | 0.259 | 0.242 | 0.211 | 0.204 | 0.332 | 0.34 | 0.37 | 0.31
8 | LU99A | 0.625 | 0.632 | 0.659 | 0.516 | 0.583 | 0.898 | 0.729 | 0.83 | 0.699 | 0.34 | 0.317 | 0.412 | 0.351 | 0.505 | 0.649 | 0.512 | 0.481
9 | NCI-H1755 | 0.398 | 0.404 | 0.43 | 0.402 | 0.378 | 0.874 | 0.807 | 0.824 | 0.847 | 0.446 | 0.426 | 0.342 | 0.365 | 0.78 | 0.753 | 0.778 | 0.752
10 | LOU-NH91 | 0.511 | 0.642 | 0.532 | 0.58 | 0.495 | 0.87 | 0.859 | 0.834 | 0.738 | 0.503 | 0.496 | 0.523 | 0.539 | 0.773 | 0.761 | 0.818 | 0.824
11 | SK-LU-1 | 0.251 | 0.168 | 0.192 | 0.191 | 0.181 | 0.762 | 0.778 | 0.711 | 0.449 | 0.618 | 0.493 | 0.459 | 0.258 | 0.522 | 0.442 | 0.424 | 0.412
12 | BEN | 0.323 | 0.362 | 0.374 | 0.34 | 0.303 | 0.692 | 0.714 | 0.667 | 0.546 | 0.632 | 0.545 | 0.461 | 0.534 | 1.06 | 1.07 | 1.14 | 1
13 | NCI-H1734 | 0.471 | 0.415 | 0.417 | 0.446 | 0.451 | 0.88 | 0.843 | 0.672 | 0.611 | 0.486 | 0.363 | 0.438 | 0.438 | 0.708 | 0.73 | 0.707 | 0.723
14 | LCLC-103H | 0.48 | 0.439 | 0.479 | 0.463 | 0.45 | 0.744 | 0.64 | 0.646 | 0.72 | 0.551 | 0.655 | 0.545 | 0.53 | 0.635 | 0.707 | 0.66 | 0.672
15 | ChaGo-K-1 | 0.722 | 0.601 | 0.59 | 0.598 | 0.547 | 0.833 | 0.924 | 0.906 | 0.769 | 0.619 | 0.838 | 0.55 | 0.824 | 0.908 | 0.891 | 0.897 | 0.92
16 | COR-L 105 | 0.42 | 0.364 | 0.296 | 0.462 | 0.377 | 0.978 | 1.1 | 0.846 | 0.534 | 0.342 | 0.312 | 0.338 | 0.347 | 0.435 | 0.427 | 0.345 | 0.468
17 | Calu-6 | – | – | – | – | – | 0.817 | 0.702 | 0.515 | 0.383 | 0.931 | 0.644 | 0.467 | 0.335 | – | – | – | –
18 | HCC-44 | – | – | – | – | – | – | – | – | – | 0.562 | 0.525 | 0.379 | 0.337 | 1.03 | 0.993 | 0.999 | 1.14
19 | NCI-H2342 | 0.436 | 0.341 | 0.325 | 0.288 | 0.331 | 0.922 | 1.09 | 0.961 | 0.981 | – | – | – | – | 0.838 | 0.835 | 0.789 | 0.975
20 | EBC-1 | – | – | – | – | – | 0.0932 | 0.0928 | 0.114 | 0.109 | 0.259 | 0.172 | 0.182 | 0.173 | – | – | – | –
21 | NCI-H522 | 0.938 | 0.951 | 0.805 | 0.8 | 0.848 | – | – | – | – | – | – | – | – | 0.859 | 0.727 | 0.757 | 0.888
22 | NCI-H1792 | 0.843 | 0.803 | 0.556 | 0.759 | 0.755 | – | – | – | – | 0.238 | 0.197 | 0.196 | 0.144 | 0.439 | 0.521 | 0.452 | 0.402
23 | IA-LM | – | – | – | – | – | 0.949 | 0.837 | 0.576 | 0.403 | 0.144 | 0.143 | 0.119 | 0.0815 | – | – | – | –
